Data on one compound can be found in article PMC11889964, “Surveying helix 12 dynamics within constitutively active estrogen receptors using bipartite tetracysteine display” (The Journal of Biological Chemistry, 2025).

Each structure is given as a SMILES string. Residue numbers refer to the chain shown, from its start.

What all share (assay type): binding
In experiment [1] the target is T1, ERα-LBD-ΔC4 (Homo sapiens, UniProt P03372, A546C/C417S/C530A/E380C/H547C).
T1 construct: pMCSG7 leader with TEV site (ENLYFQ/SNA); made in house; host or cells: E. coli BL21(DE3)
T1 sequence (P03372 with tags, fused parts or gaps E380C/C417S/C530A/A546C/H547C): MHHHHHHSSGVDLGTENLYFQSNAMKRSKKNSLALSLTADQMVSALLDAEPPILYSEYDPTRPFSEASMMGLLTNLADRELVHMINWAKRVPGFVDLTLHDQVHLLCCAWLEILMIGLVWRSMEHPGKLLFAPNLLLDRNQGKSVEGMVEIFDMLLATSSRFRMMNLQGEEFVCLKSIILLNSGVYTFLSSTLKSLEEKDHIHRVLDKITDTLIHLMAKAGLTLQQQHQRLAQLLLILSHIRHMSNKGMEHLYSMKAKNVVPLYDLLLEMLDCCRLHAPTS
In words: Titration FlAsH-ER assay, FlAsH apparent equilibrium dissociation constants (Kapp). Here is the method:
(§1) Titration experiments were performed on 384-well black, flat-bottom plates (catalog no.: 3575; Corning) with wells containing 25 μl total reaction volume^. ERα-LBDs (10 μM) were incubated in 25 μl of binding buffer supplemented with 1 mM TCEP overnight at room temperature. […] The solutions were then transferred to a fresh 384-well black, flat-bottom plate (catalog no.: 3575; Corning) and serially diluted with binding buffer. EDT and FlAsH-EDT2 (1 μl) in binding buffer were then immediately added at final concentrations of 10 μM and 1 μM, respectively. The reactions were then allowed to incubate in the dark for 6 h at room temperature. Fluorescence counts for each sample were then measured using a SpectraMax M5e multimode plate reader, with an excitation wavelength of 508 nm and an emission wavelength of 530 nm. Data were processed using SoftMax Pro software, version 6.4 and Kaleidagraph, version 4.5. The Kapp for each complex was defined by curve fitting using the equation below. Fobs=Fmin+(Fmax−Fmin/2L)(L+P+Kapp−((L+P+Kapp)^2−(4LP))^0.5) where Fobs is the observed fluorescence; P represents the total protein concentration; L is the total concentration of FlAsH-EDT2; Fmin is the minimum fluorescence value; Fmax represents the maximum fluorescence value; and Kapp is the apparent equilibrium dissociation constant.

Experiment [2] has as its target T2, ERα-LBD-ΔC4(D538G) (Homo sapiens, UniProt P03372, A546C/C417S/C530A/D538G/E380C/H547C).
T2 construct: pMCSG7 leader with TEV site (ENLYFQ/SNA); made in house; host or cells: E. coli BL21(DE3)
T2 sequence (P03372 with tags, fused parts or gaps E380C/C417S/C530A/D538G/A546C/H547C): T1 sequence (P03372 with tags, fused parts or gaps E380C/C417S/C530A/A546C/H547C) with D265G
Described as above. Here is the method: as §1

The target of experiment [3] is T3, ERα-LBD-ΔC4(Y537S) (Homo sapiens, UniProt P03372, A546C/C417S/C530A/E380C/H547C/Y537S).
T3 construct: pMCSG7 leader with TEV site (ENLYFQ/SNA); made in house; host or cells: E. coli BL21(DE3)
T3 sequence (P03372 with tags, fused parts or gaps E380C/C417S/C530A/Y537S/A546C/H547C): T1 sequence (P03372 with tags, fused parts or gaps E380C/C417S/C530A/A546C/H547C) with Y264S
Described as above. Here is the method:
as §1

The target in experiment [4] is T1, ERα-LBD-ΔC4. In words: Kinetic FlAsH-ER assay, FlAsH apparent rate constants (kon). The note with it: 1 μM FlAsH-EDT2, 10 μM protein. Here is the method: (§2) Kinetic experiments were performed on 384-well black, flat-bottom plates (catalog no.: 3575; Corning) with wells containing 25 μl total reaction volume. ERα-LBDs (10 μM) were incubated in 25 μl of binding buffer supplemented with 1 mM TCEP overnight at room temperature. […] Aliquots of EDT and FlAsH-EDT2 (1 μl) at respective final concentrations of 10 μM and 1 μM in binding buffer were then added to the samples. The change in fluorescence of each sample was then collected over 6 h with measurements taken at 1 min intervals. Data were collected using a SpectraMax M5e multimode plate reader, with an excitation wavelength of 508 nm and an emission wavelength of 530 nm. The data were processed using Kaleidagraph, version 4.5, and apparent rate constants (kon) were determined through curve fitting using the equation below: Fobs=Fmin+(Fmax−Fmin)(1−e^(−kT)) where Fobs is the observed fluorescence; Fmin is the minimum fluorescence value; Fmax represents the maximum fluorescence value; T is time in minutes; and k is the apparent rate constant.

Experiment [5] deals with T2, ERα-LBD-ΔC4(D538G). The description is as above. The note with it: 1 μM FlAsH-EDT2, 10 μM protein. Here is the method: as §2
Experiment [6] has as its target T3, ERα-LBD-ΔC4(Y537S). The experiment is described as above. The note with it: 1 μM FlAsH-EDT2, 10 μM protein. Here is the method:
as §2

The target of experiment [7] is T1, ERα-LBD-ΔC4. In words: Endpoint fluorescence FlAsH-ER assay. The note with it: unliganded ERα-LBD-ΔC4; 1 μM FlAsH-EDT2, 6 h. Here is the method:
Endpoint fluorescence experiments were performed in triplicate on 384-well black, flat-bottom plates (catalog no.: 3575; Corning) with wells containing 25 μl total reaction volume. The protein (10 μM) was incubated in FlAsH binding buffer (50 mM Tris base, 500 mM KCl, 2 mM DTT, 1 mM EDTA, 1 mM Na3VO4, 10% glycerol, pH 8.0) supplemented with 1 mM TCEP overnight at room temperature. […] Following incubation, 1 μl aliquots of EDT and FlAsH-EDT2 in binding buffer were added at final concentrations of 10 μM and 1 μM, respectively. The reaction mixtures were then allowed to incubate in the dark for 6 h at room temperature. Following incubation, the fluorescence of each sample was measured using a SpectraMax M5e multimode plate reader (Molecular Devices), with an excitation wavelength of 508 nm and an emission wavelength of 530 nm. Data were collected using SoftMax Pro software, version 6.4 (Molecular Devices) and processed using Kaleidagraph, version 4.5 (Synergy).

On to `O=C(O)c1ccccc1-c1c2ccc(=O)c([As]3SCCS3)c-2oc2c([As]3SCCS3)c(O)ccc12` [FlAsH], for which the Kd on ERα-LBD-ΔC4 [1] (liganded receptor (+E2)) came out at 1220 ± 700 nM; at ERα-LBD-ΔC4 [1] (unliganded receptor (−E2)) it was 940 ± 560 nM; at ERα-LBD-ΔC4(D538G) [2] (liganded receptor (+E2)), 160 ± 60 nM; on ERα-LBD-ΔC4(D538G) [2] (unliganded receptor (−E2)), 570 ± 370 nM; on ERα-LBD-ΔC4(Y537S) [3] (liganded receptor (+E2)) it was 540 ± 330 nM; on ERα-LBD-ΔC4(Y537S) [3] (unliganded receptor (−E2)), 900 ± 650 nM. Moreover, the kon on ERα-LBD-ΔC4 [4] (liganded receptor (+10 μM E2)) is 310 M⁻¹ s⁻¹; on ERα-LBD-ΔC4 [4] (unliganded receptor (−E2)) it was 447 M⁻¹ s⁻¹; on ERα-LBD-ΔC4(D538G) [5] (liganded receptor (+10 μM E2)) it was 1170 M⁻¹ s⁻¹; on ERα-LBD-ΔC4(D538G) [5] (unliganded receptor (−E2)), 838 M⁻¹ s⁻¹; on ERα-LBD-ΔC4(Y537S) [6] (liganded receptor (+10 μM E2)) it was 900 M⁻¹ s⁻¹; at ERα-LBD-ΔC4(Y537S) [6] (unliganded receptor (−E2)), 491 M⁻¹ s⁻¹. Besides, on ERα-LBD-ΔC4 [7], the “increase in endpoint fluorescence compared with ERα-LBD-ΔC0” value is on record as 10 fold.

As a reminder, the kon is a measure of how fast the partners come together.
